# Results as given in patent US12150447B2, “Plant growth regulator” (University of Washington, priority 2017, dated 2024).
# Legend:
# [1] = system: wild-type Arabidopsis seeds; test: Root elongation assay (Test Example 5), wild-type seeds; format: in vivo; conditions: wild-type seeds (35S:TIR1 WT in FIG. 4), 0.1 μM
# Description: (§1) FIG. 4 This is a diagram showing the results of root elongation assay in Test Example 5. On the left side of the photo, “35S:TIR1^F79G” indicates experiments using Arabidopsis seeds having an expression cassette of a mutant auxin receptor (TIR1 F79G), whereas “35S:TIR1^WT” indicates Arabidopsis seeds expressing the wild type auxin receptor (TIR1). On the upper part of the photo, “DMSO” indicates experiments where the plants are not treated with test compounds, “IAA(1) 0.1 μM” indicates experiments where auxin (indole-3-acetic acid) is used as the test compound, and “21 0.1 μM” indicates experiments where the auxin derivative synthesized in Example 30 is used as the test compound.
# (§2) Arabidopsis seeds having the expression cassette of mutant auxin receptor (TIR1 F79G) (SEQ ID NO: B) or wild-type Arabidopsis seeds without said expression cassette were sterilized and stored at 4° C. in the dark for several days. The seeds were transferred to 0.5× Murashige and Skoog (MS) liquid medium and incubated for 1 day at 22° C. in the light with shaking at 140 rpm. The test compound was added to the medium at various concentrations and the seeds were further incubated for 1 week. […] If an auxin response signal has been produced in the root, root elongation will be suppressed.
# (§3) Test Example 5: Evaluation of Plant Growth Regulating Action 4 (Root Elongation Assay […]
# [2] = target: T1, mutant auxin receptor (TIR1 F79G) (Arabidopsis thaliana, UniProt Q570C0, F79G); test: Evaluation of binding to auxin receptor (yeast two-hybrid assay), mutant TIR1 F79G; conditions: for TIR1 F79G: minimum concentration of the test compound at which the well turns blue: Table 2, repeated from Test Example 1, Table 1 for comparison; for mut TIR: minimum concentration of the test compound in which the well turns blue: yeast EGY48, LacZ reporter, X-gal, 30° C. for 3 days, TIR1 F79G with AUX/IAA protein
# T1 construct: expressed in transfected cells; host or cells: Saccharomyces cerevisiae strain EGY48
# Text: (§4) Test Example 1: Evaluation of Binding to Auxin Receptor (Yeast Two-Hybrid Assay
# (§5) Specifically, the inventors set up the assay in the following manner.
# Yeast strain EGY48 was transformed into a plasmid (pSH18-34) containing a LacZ expression cassette (LexA-operon: LacZ reporter) that is transcriptionally regulated by the LexA-operon, a plasmid derived from pGLex313 containing an expression cassette of LexA-DNA-binding domain fusion protein A (the wild-type auxin receptor: SEQ ID NO. 1, or mutant auxin receptor (TIR1 F79G) where the amino acid residue 79 (phenylalanine) in the wild-type is mutated to a glycine: SEQ ID NO. 2), and a plasmid derived from pJG4-5 containing an expression cassette of B42 transcription activator fusion protein B (AUX/IAA protein: SEQ ID NO: 3). The transformant was cultured at 30° C. on an agar plate made of yeast growth medium (minimal SD base and -His/-Trp/-Ura dropout supplement). The colonies were picked up and incubated overnight in liquid SD/-His/-Trp/-Ura medium at 30° C. Afterwards, the medium was replaced with a liquid medium composed of minimal SD/Gal/Raf base, -His/-Trp/-Ura dropout supplement, 50 mM Na-phosphate buffer (pH 7.0), […] X-gal, and various concentrations of test compounds. After incubation at 30° C. for 3 days, the medium containing yeast was transferred to a white 96-well plate (flat bottom) and observed. The lower the concentration of the test compound when blue color appears, the higher the binding between the test compound and the auxin receptor (wild type or mutant) is. Conversely, higher the concentration of test compound when the blue color appears for the first time, the lower the binding between the test compound and the auxin receptor (wild type or mutant).
# (§6) In Table 1, the concentration of “wt TIR” indicates the minimum concentration of the test compound in which the well turns blue when the wild type auxin receptor is used, whereas the concentration of “mut” indicates the minimum concentration of the test compound in which the well turns blue when the mutant auxin receptor (TIR1 F79G) is used.
# [3] = target: T2, mutant auxin receptor (TIR1 F79A) (Arabidopsis thaliana, UniProt Q570C0, F79A); test: Evaluation of binding to auxin receptor (yeast two-hybrid assay), mutant TIR1 F79A; conditions: yeast two-hybrid according to Test Example 1
# T2 construct: expressed in transfected cells; host or cells: Saccharomyces cerevisiae strain EGY48
# [4] = target: T3, mutant auxin receptor (TIR1 F79S) (Arabidopsis thaliana, UniProt Q570C0, F79S); test: Evaluation of binding to auxin receptor (yeast two-hybrid assay), mutant TIR1 F79S; conditions: yeast two-hybrid according to Test Example 1
# T3 construct: expressed in transfected cells; host or cells: Saccharomyces cerevisiae strain EGY48
# [5] = system: Arabidopsis seeds expressing the mutant auxin receptor (TIR1 F79G); test: Root elongation assay (Test Example 5), TIR1 F79G seeds; format: in vivo; conditions: 35S:TIR1 F79G seeds, 0.1 μM; FIG. 4
# Description: as §1, §2, §3
# [6] = target: T4, wild-type auxin receptor (TIR1) (Arabidopsis thaliana, UniProt Q570C0); test: Evaluation of binding to auxin receptor (yeast two-hybrid assay), wild-type receptor; conditions: yeast EGY48, LacZ reporter, X-gal, 30° C. for 3 days; wild type auxin receptor with AUX/IAA protein
# T4 construct: expressed in transfected cells; host or cells: Saccharomyces cerevisiae strain EGY48
# T4 sequence (Q570C0 1-594): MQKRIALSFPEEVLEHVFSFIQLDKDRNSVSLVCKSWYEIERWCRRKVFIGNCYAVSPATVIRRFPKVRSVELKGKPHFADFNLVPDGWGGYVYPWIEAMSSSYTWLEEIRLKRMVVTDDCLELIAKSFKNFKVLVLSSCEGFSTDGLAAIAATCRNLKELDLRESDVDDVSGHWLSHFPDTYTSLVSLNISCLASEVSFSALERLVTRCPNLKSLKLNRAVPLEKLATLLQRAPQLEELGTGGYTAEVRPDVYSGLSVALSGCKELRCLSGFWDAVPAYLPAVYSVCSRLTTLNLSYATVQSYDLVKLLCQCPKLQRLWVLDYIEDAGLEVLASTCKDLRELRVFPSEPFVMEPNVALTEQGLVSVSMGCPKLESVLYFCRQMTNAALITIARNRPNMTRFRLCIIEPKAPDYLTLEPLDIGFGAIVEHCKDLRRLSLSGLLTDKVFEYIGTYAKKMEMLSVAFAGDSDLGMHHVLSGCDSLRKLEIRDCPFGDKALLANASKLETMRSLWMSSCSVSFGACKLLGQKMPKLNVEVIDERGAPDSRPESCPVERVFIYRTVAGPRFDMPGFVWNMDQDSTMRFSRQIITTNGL
# T4 sequence (Q38822 1-93 partner limits assumed): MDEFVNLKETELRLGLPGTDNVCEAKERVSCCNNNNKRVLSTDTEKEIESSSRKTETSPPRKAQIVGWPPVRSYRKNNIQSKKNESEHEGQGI
# Description: as §4, §5
# The transformant was cultured at 30° C. on an agar plate made of yeast growth medium (minimal SD base and -His/-Trp/-Ura dropout supplement). The colonies were picked up and incubated overnight in liquid SD/-His/-Trp/-Ura medium at 30° C. Afterwards, the medium was replaced with a liquid medium composed of minimal SD/Gal/Raf base, -His/-Trp/-Ura dropout supplement, 50 mM Na-phosphate buffer (pH 7.0), […] X-gal, and various concentrations of test compounds. After incubation at 30° C. for 3 days, the medium containing yeast was transferred to a white 96-well plate (flat bottom) and observed.
# as §6
# T1 sequence (Q570C0 whole entry F79G, one chain of several): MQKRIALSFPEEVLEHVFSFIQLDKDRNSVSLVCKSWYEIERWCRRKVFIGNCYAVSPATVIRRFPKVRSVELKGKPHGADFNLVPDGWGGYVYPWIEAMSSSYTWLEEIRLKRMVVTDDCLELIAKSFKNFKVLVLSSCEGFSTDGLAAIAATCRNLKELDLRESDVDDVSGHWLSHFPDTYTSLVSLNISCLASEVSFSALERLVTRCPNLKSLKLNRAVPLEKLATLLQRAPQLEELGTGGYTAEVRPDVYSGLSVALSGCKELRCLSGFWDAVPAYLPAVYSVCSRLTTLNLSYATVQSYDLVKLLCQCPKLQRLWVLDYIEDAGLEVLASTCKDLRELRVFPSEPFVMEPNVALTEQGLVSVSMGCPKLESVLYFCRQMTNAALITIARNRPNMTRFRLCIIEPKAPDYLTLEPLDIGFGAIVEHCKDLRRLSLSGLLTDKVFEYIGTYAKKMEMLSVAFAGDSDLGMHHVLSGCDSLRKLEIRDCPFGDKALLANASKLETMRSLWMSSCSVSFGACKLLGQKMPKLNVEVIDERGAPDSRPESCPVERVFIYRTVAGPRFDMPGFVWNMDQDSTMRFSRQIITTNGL
# T3 sequence (Q570C0 whole entry F79S, one chain of several): as the sequence (Q570C0 whole entry F79G, one chain of several) above, with G79S counted along it
# T2 sequence (Q570C0 whole entry F79A, one chain of several): as the sequence (Q570C0 whole entry F79G, one chain of several) above, with G79A counted along it
SMILES,inhibition of root elongation [1],TIR1 F79G: minimum concentration of the test compound at which the well turns blue [2] [µM],mut TIR: minimum concentration of the test compound in which the well turns blue [2] [µM],TIR1 F79A: minimum concentration of the test compound at which the well turns blue [3] [µM],TIR1 F79S: minimum concentration of test compound at which the well turns blue [4] [µM],inhibition of root elongation [5],wt TIR: minimum concentration of the test compound in which the well turns blue [6] [µM]
"O=C(O)Cc1c[nH]c2ccc(C34CC5CC(CC(C5)C3)C4)cc12 [Compound 21, 2-(5-((3r, 5r, 7r)-adamantan-1-yl)-1H-indol-3-yl)acetic acid]",does not inhibit root elongation,0.001,0.001,0.00001,0.0001,inhibited root elongation,0.1
"O=C(O)Cc1c[nH]c2ccc(C3CCCCC3)cc12 [Compound 15, 2-(5-cyclohexyl-1H-indol-3-yl)acetic acid]",,0.001,0.001,0.0001,0.001,,0.1
"Cc1ccc(Cl)c(-c2ccc3[nH]cc(CC(=O)O)c3c2)c1 [MK-307, 2-(5-(2-chloro-5-methylphenyl)-1H-indol-3-yl)acetic acid]",,,10,,,,>100
"Cc1cc(C)cc(-c2ccc3[nH]cc(CC(=O)O)c3c2)c1 [MK-379, 2-(5-(3,5-dimethylphenyl)-1H-indol-3-yl)acetic acid]",,,1,,,,100
"Cc1cccc(-c2ccc3[nH]cc(CC(=O)O)c3c2)c1 [MK-190, 2-(5-(m-tolyl)-1H-indol-3-yl)acetic acid]",,,0.1,,,,10
